The structures appear in SMILES notation.

The test has as its target T1, human M4 muscarinic acetylcholine receptor (Homo sapiens, UniProt P08173).
T1 construct: expressed in transfected cells
T1 sequence (P08173 1-479): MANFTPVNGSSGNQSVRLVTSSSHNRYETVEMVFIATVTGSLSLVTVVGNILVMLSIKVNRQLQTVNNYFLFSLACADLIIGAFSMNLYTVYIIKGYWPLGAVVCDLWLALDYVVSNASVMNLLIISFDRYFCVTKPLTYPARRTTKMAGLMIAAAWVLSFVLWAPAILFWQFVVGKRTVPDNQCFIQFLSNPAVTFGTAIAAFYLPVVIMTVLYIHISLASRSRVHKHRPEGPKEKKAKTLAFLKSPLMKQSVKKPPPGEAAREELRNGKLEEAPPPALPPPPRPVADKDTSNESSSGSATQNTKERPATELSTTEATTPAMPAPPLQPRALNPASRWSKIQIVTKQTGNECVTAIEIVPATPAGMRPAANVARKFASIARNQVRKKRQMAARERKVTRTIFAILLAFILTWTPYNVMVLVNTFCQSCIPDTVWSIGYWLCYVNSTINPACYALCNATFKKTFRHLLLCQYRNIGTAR
Briefly: human FLIPR-based M4 PAM assay (CHO-K1 cells with human M4 receptor and Gαqi5, calcium dye fluorescence). The class given is cell-based. The following applies: inflection point of 4 parameter logistic fit; acetylcholine added at 20% of maximum response; read-out: M4PAM IP. As to the method: In a typical experiment the M4 muscarinic acetylcholine receptor modulating activity of the compounds of the present invention was determined in accordance with the following experimental method. CHO-K1 cells stably transfected with human M4 receptor and chimeric G-protein Gαqi5 (Coward P, et al., Analytical Biochemistry, 270:242-248 (1999)) are thawed from liquid N2 storage, resuspended in growth medium, plated in black, clear bottom 384 well plates, and incubated 16-20 hours at 37° C., 5% CO2. On the day of assay, growth medium is removed, the cells are washed 2 times with wash buffer, and cells are incubated in dye loading buffer at 37° C., 5% CO2 for ˜1 hour. Following dye loading the cell plates are placed in a FLIPR Tetra instrument and while monitoring dye fluorescence (excitation […]), 10 uL of test substance at increasing concentrations is added, and fluorescence values are recorded for 4 min. Next, 10 uL of acetylcholine is added (final concentration calculated so as to achieve 20% of the maximum acetycholine response), and the fluorescence reading is continued for 3.5 min. In some cases, a third addition of acetylcholine (final concentration calculated to achieve 70% of the maximal acetylcholine response) is performed. The resulting dose response curves are fit to a 4 parameter logistic equation and the final result is determined as the inflection point (IP) of the curve
CHO-K1 cells stably transfected with human M4 receptor and chimeric G-protein Gαqi5 are thawed from liquid N2 storage, resuspended in growth medium, plated in black, clear bottom 384 well plates, and incubated 16-20 hours at 37° C., 5% CO2.
On the day of assay, growth medium is removed, the cells are washed 2 times with wash buffer, and cells are incubated in dye loading buffer at 37° C., 5% CO2 for ˜1 h. Following dye loading the cell plates are placed in a FLIPR Tetra instrument and while monitoring dye fluorescence ([…]), 10 uL of test substance at increasing concentrations is added, and fluorescence values are recorded for 4 min. Next, 10 uL of acetylcholine is added (final concentration calculated so as to achieve 20% of the maximum acetycholine response), and the fluorescence reading is continued for 3.5 min. In some cases, a third addition of acetylcholine (final concentration calculated to achieve 70% of the maximal acetylcholine response) is performed.
Take `CC(C)CCn1cc(-c2ccc(Cl)nc2-c2ccc3c(c2)C(=O)N(Cc2ccc(O)cc2)C3)cn1` [Example 114, 6-{6-chloro-3-[1-(3-methylbutyl)-1H-pyrazol-4-yl]pyridin-2-yl}-2-(4-hydroxybenzyl)-2,3-dihydro-1H-isoindol-1-one]: the EC50 was 22.8 nM.

`CC(C)(C)Cn1cc(-c2ccc(C(F)(F)F)nc2-c2ccn3ccnc3c2)cn1` [Example 83, 7-{3-[1-(2,2-dimethylpropyl)-1H-pyrazol-4-yl]-6-(trifluoromethyl)pyridin-2-yl}imidazo[1,2-a]pyridine]: the EC50 was determined as 46 nM.

As for `Cc1ccc(-c2cnn(CCC(C)C)c2C#N)c(-c2ccn3ccnc3c2)n1` [Example 136, 4-(2-imidazo[1,2-a]pyridin-7-yl-6-methylpyridin-3-yl)-1-(3-methylbutyl)-1H-pyrazole-5-carbonitrile], the EC50 worked out at 741 nM.

Take `CN1Cc2ccc(-c3nc(C#N)c(F)cc3-c3cnn(CC4(C(F)(F)F)CC4)c3)cc2C1=O` [Example 54, 3-fluoro-6-(2-methyl-3-oxo-2,3-dihydro-1H-isoindol-5-yl)-5-(1-{[1-(trifluoromethyl)cyclo-propyl]methyl}-1H-pyrazol-4-yl)pyridine-2-carbonitrile]: the EC50 stood at 44.7 nM.

Regarding `Cc1ccc(-c2cnn(CCC(C)C)c2)c(-c2ccc3c(c2)CN(C(=O)OC(C)(C)C)C3)n1` [Example 76, tert-butyl 5-{6-methyl-3-[1-(3-methylbutyl)-1H-pyrazol-4-yl]pyridin-2-yl}-1,3-dihydro-2H-isoindole-2-carboxylate], the EC50 worked out at 76 nM.

On to `Cc1cn2ccc(-c3ncccc3-c3cnn(CC4(CC(F)F)CC4)c3)cc2n1` [Example 17, 7-[3-(1-{[1-(2,2-difluoroethyl)cyclo-propyl]methyl}-1H-pyrazol-4-yl)pyridin-2-yl]-2-methylimidazo[1,2-a]pyridine], for which the EC50 was 277 nM.

On to `Cc1cn2ccc(-c3nc(C#N)ccc3-c3cnn(CCC(C)(C)F)c3)cc2n1` [Example 119, 5-[1-(3-fluoro-3-methylbutyl)-1H-pyrazol-4-yl]-6-(2-methylimidazo[1,2-a]pyridin-7-yl)pyridine-2-carbonitrile], for which the EC50 turned out to be 55.9 nM.

In the case of `Cc1nc2cc(-c3nc(C#N)ccc3-c3cnn(CCC(C)(F)F)c3)ccc2n1C` [Example 27, 5-[1-(3,3-difluorobutyl)-1H-pyrazol-4-yl]-6-(1,2-dimethyl-1H-benzimidazol-5-yl)pyridine-2-carbonitrile], the EC50 was 74 nM.

Turning to `Cc1nc2cc(-c3ncc(F)cc3-c3cnn(CCC(C)(C)F)c3)ccc2n1C` [Example 120, 5-(5-fluoro-3-(1-(3-fluoro-3-methylbutyl)-1H-pyrazol-4-yl)pyridin-2-yl)-1,2-dimethyl-1H-benzo[d]imidazole], the EC50 was 401 nM.

On to `N#Cc1ccc(-c2cnn(CC(F)C3CC3)c2)c(-c2ccn3ccnc3c2)n1` (centres unmarked) [Example 124, 5-(1-(2-cyclopropyl-2-fluoroethyl)-1H-pyrazol-4-yl)-6-(imidazo[1,2-a]pyridin-7-yl)picolinonitrile], for which the EC50 turned out to be 60.5 nM.

For the molecule `Cc1ccc(-c2cnn(Cc3ccccc3F)c2)c(-c2ccc3c(c2)C(=O)N(C2CC2)C3)n1` [Example 13, 2-cyclopropyl-6-{3-[1-(2-fluorobenzyl)-1H-pyrazol-4-yl]-6-methylpyridin-2-yl}-2,3-dihydro-1H-isoindol-1-one], the EC50 stood at 126 nM.

As for `CC(C)(C#N)Cn1cc(-c2ccc(C#N)nc2-c2ccn3ccnc3c2)cn1` [Example 46, 5-[1-(2-cyano-2-methylpropyl)-1H-pyrazol-4-yl]-6-imidazo[1,2-a]pyridin-7-ylpyridine-2-carbonitrile], the EC50 is 242 nM.

For the molecule `Cc1nc2cc(-c3nc(C#N)ccc3-c3cnn(C[C@]4(F)C[C@H](F)C4)c3)ccc2n1C` [Example 129, 5-(1-(((1r,3r)-1,3-difluorocyclobutyl)methyl)-1H-pyrazol-4-yl)-6-(1,2-dimethyl-1H-benzo[d]imidazol-5-yl)picolinonitrile], the EC50 was determined as 114 nM.

Regarding `N#Cc1ccc(-c2cnn(CC3(C(F)(F)F)CC3)c2)c(-c2ccn3ccnc3c2)n1` [Example 56, 6-imidazo[1,2-a]pyridin-7-yl-5-(1-{[1-(trifluoromethyl)cyclo-propyl]methyl}-1H-pyrazol-4-yl)pyridine-2-carbonitrile], the EC50 stood at 127 nM.

Regarding `Cc1cn2ccc(-c3nc(C#N)ccc3-c3cnn(CC4(F)CCC4)c3)cc2n1` [Example 118, 5-(1-((1-fluorocyclobutyl)methyl)-1H-pyrazol-4-yl)-6-(2-methylimidazo[1,2-a]pyridin-7-yl)picolinonitrile], the EC50 came out at 30.7 nM.

As for `C#Cc1ccc(-c2cnn(CC(C)(C)C)c2)c(-c2ccn3cc(C)nc3c2)n1` [Example 123, 7-(6-ethynyl-3-(1-neopentyl-1H-pyrazol-4-yl)pyridin-2-yl)-2-methylimidazo[1,2-a]pyridine], the EC50 came out at 62.3 nM.

Consider `CC(C)CCn1cc(-c2cc(Cl)cnc2-c2ccc3cn(C)nc3c2)cn1` [Example 77, 6-{5-chloro-3-[1-(3-methylbutyl)-1H-pyrazol-4-yl]pyridin-2-yl}-2-methyl-2H-indazole], for which the EC50 amounted to 278 nM.

For the molecule `CC(C)CCn1cc(-c2ccc(Cl)nc2-c2ccc3c(c2)C(=O)N(CC(F)(F)F)C3)cn1` [Example 111, 6-chloro-3-(1-isopentyl-1H-pyrazol-4-yl)-2-(3-oxo-2-(2,2,2-trifluoroethyl)isoindolin-5-yl)pyridin-1-ium], the EC50 turned out to be 40.2 nM.

As for `N#Cc1ccc(-c2cnn(C[C@H]3C[C@@H]3C(F)(F)F)c2)c(-c2ccn3ccnc3c2)n1` [Example 25, 6-imidazo[1,2-a]pyridin-7-yl-5-(1-{[(1S,2S)-2-(trifluoromethyl)cyclo-propyl]methyl}-1H-pyrazol-4-yl)pyridine-2-carbonitrile], the EC50 was 78.1 nM.

As to `CC(C)(C)Cn1cc(-c2ccc(OC(F)(F)F)nc2-c2ccn3ccnc3c2)cn1` [Example 100, 7-{3-[1-(2,2-dimethylpropyl)-1H-pyrazol-4-yl]-6-(trifluoromethoxy)pyridin-2-yl}imidazo [1,2-a]pyridine], the EC50 turned out to be 211 nM.

As to `Cc1cn2ccc(-c3nc(C#N)ccc3-c3cnn(CC(C)C(F)(F)F)c3)cc2n1` (centres unmarked) [Example 126, 6-(2-methylimidazo [1,2-a]pyridin-7-yl)-5-(1-(3,3,3-trifluoro-2-methylpropyl)-1H-pyrazol-4-yl)picolinonitrile], the EC50 amounted to 39.1 nM.

As to `CC(C)(C)Cn1cc(-c2ccc(C#N)nc2-c2ccc3nn[nH]c3c2)cn1` [Example 79, 6-(1H-benzotriazol-6-yl)-5-[1-(2,2-dimethylpropyl)-1H-pyrazol-4-yl]pyridine-2-carbonitrile], the EC50 turned out to be 38.4 nM.

Turning to `CC(C)CCn1cc(-c2ccc(Cl)nc2-c2ccc3c(c2)C(=O)NC3)cn1` [Example 110, 6-(6-chloro-3-(1-isopentyl-1H-pyrazol-4-yl)pyridin-2-yl)isoindolin-1-one], the EC50 is 40.2 nM.

Regarding `CC(C)CCn1cc(-c2ccc(Cl)nc2-c2ccc3c(c2)C(=O)N(Cc2ccccc2F)C3)cn1` [Example 113, 6-{6-chloro-3-[1-(3-methylbutyl)-1H-pyrazol-4-yl]pyridin-2-yl}-2-(2-fluorobenzyl)-2,3-dihydro-1H-isoindol-1-one], the EC50 was found to be 54 nM.

Take `CC(C)(Cn1cc(-c2ccc(C#N)nc2-c2ccn3ccnc3c2)cn1)C(F)F` [Example 107, 5-[1-(3,3-difluoro-2,2-dimethylpropyl)-1H-pyrazol-4-yl]-6-imidazo[1,2-a]pyridin-7-ylpyridine-2-carbonitrile]: the EC50 stood at 32.1 nM.

Consider `Cc1cn2ccc(-c3nc(C#N)ccc3-c3cnn(CCC(F)(F)C(F)(F)F)c3)cc2n1` [Example 29, 6-(2-methylimidazo[1,2-a]pyridin-7-yl)-5-[1-(3,3,4,4,4-pentafluorobutyl)-1H-pyrazol-4-yl]pyridine-2-carbonitrile], for which the EC50 was 96.9 nM.

For the origin of these results see US11339156B2, “3-(1H-pyrazol-4-yl)pyridine allosteric modulators of the M4 muscarinic acetylcholine receptor” (Merck Sharp & Dohme Corp., priority 2017, dated 2022).
